The subject of one data set is KYSE-450. Put plainly: MTT cytotoxicity assay, KYSE-450. The class given is cell-based, Human. Particulars: KYSE-450, highest concentration of 50 μg/mL, 48 hours. As for the experimental part:
(§1) In this invention, compound 1 was dissolved in dimethyl sulfoxide (DMSO) to make stock solutions and further diluted in culture medium for this experiment. Human esophagus carcinoma cancer cell lines (KYSE-70, KYSE-150, KYSE-450 and KYSE-520) were cultured in RPMI 1640 or DMEM medium, containing 10% fetal bovine serum and 1% antibiotics (Penicillin and strep). The cell lines were cultured at 37° C. in a humidified environment containing 5% CO2. A standard colorimetric MTT assay was used to determine the cell viability. Cells were seeded in a 96-well plate (3×10^3 cells/well) and allowed to attach to the plate overnight. After the recovery, cells were treated with various concentrations of compound 1 or the crude extract (1.56, 3.125, 6.25, 12.5, 25, 50 μg/mL) for 48 hours. Then, 20 μL of MTT (5 mg/mL stock in PBS) per well was added into the medium (200 μL) and incubated for 4 hours at 37° C. Finally, the culture medium was removed and 200 μL of DMSO were added. Absorbance of the solution was measured using a microplate reader spectrophotometer (Bio-Rad Laboratories, Inc., Hercules, Calif.) at a wavelength of 570 nm.
(Tetrazolium dyes change colour on reduction, which living cells bring about.)

In a further data set the test system is KYSE-70. The data set is described as follows: MTT cytotoxicity assay, KYSE-70. It is filed as cell-based, Human. Conditions: KYSE-70, highest concentration of 50 μg/mL, 48 hours. How it is done:
as §1

The test system of data set [1] is KYSE-150 cells. The data set is described as follows: Tumor xenograft mouse model. It is filed as in vivo, Balb/c nude mice. Particulars: 15 and 30 mg/kg/day intraperitoneal, 12 days, vs saline control. As for the experimental part:
Six to eight-week-old female Balb/c nude weighing between 16-20 g were bred in 12 h day/night cycle environment with free access to food and water. 2×10^6 KYSE-150 cells per […] saline were injected subcutaneously into the flanks of the mice. When the tumor volume reached about 100 mm^3, the mice were randomly divided into three groups (n=5) as followed: (i) a control group: administered with saline; (ii) a low dosage group: administered with compound 1 at 15 mg/kg/day by intraperitoneal injection; (iii) a high dosage group, administered with compound 1 at 30 mg/kg/day by intraperitoneal injection. Tumor volumes were calculated with calipers every two days according to the formula: Volume=(width)^2×length/2. After 12 days observation, mice were killed to remove the tumor. Then the samples were fixed in 4% paraformaldehyde and embedded in paraffin. Five-micro-meter sections were stained with hematoxylin/eosin according to a standard procedure. The protocol was approved by the committee for Care of Laboratory Animals in the School of Chinese Medicine at the Hong Kong Baptist University.

The test system of data set [2] is KYSE-150 cells. The data set is described as follows: Wound healing assay. The class given is cell-based, human. Particulars: KYSE-150, 50 μg/mL, after 72 hours, vs control. As for the experimental part: Cells were seeded in 12 wells plate at 30% confluence by scoring with a sterile plastic tip (1 mL), then washed several times with medium to remove cell debris and then incubated in the conditioned medium in the absence or presence of compound 1 at 50 μg/mL for various periods of time up to 72 hours. Cell migration into the wound surface was monitored by Olympus IX71 microscopy and digitally photographed.
To further examine the inhibitory effect of compound 1 on the migratory activity of cancer cell, a confluent monolayer of KYSE-150 cells was scratched to form a wound and incubated in the absence or presence of compound 1 (50 μg/mL) as compared to that of controls.

A further data set concerns KYSE-150. Put plainly: MTT cytotoxicity assay, KYSE-150. Particulars: KYSE-150, highest concentration of 50 μg/mL, 48 hours. The class given is cell-based, Human. As for the experimental part:
as §1

For the next data set, the system named is KYSE-520. The data set is described as follows: MTT cytotoxicity assay, KYSE-520. The class given is cell-based, Human. Particulars: KYSE-520, highest concentration of 50 μg/mL, 48 hours. How it is done: as §1

Entries after “also recorded” stand apart in the source; their conditions may differ.

This is an account of results in patent publication US9655913B2, “Anti-esophageal cancer compound and method of use thereof” (Hong Kong Baptist University, priority 2015, dated 2017).

On to `COc1cc(-c2oc3cc(O)cc(O)c3c(=O)c2OC2OC(COC3OC(C)C(O)C(O)C3O)C(O)C(O)C2O)ccc1O` (stereo not drawn) [compound 1], for which the “Cytotoxicity (cell viability)” value in the data set on KYSE-450 was “no cytotoxicity was observed”. Besides, in the data set with KYSE-70, the “Cytotoxicity (cell viability)” value is listed as “no cytotoxicity was observed”. Further, in the data set on KYSE-150 cells [1], the Body weight entry is recorded as “significantly reduced”, the “H&E staining of tumor tissue” value was “massive necrotizing tissue”, the “Tumor growth (tumor volume)” value was “significantly reduced” and the Tumor weight result is “significantly reduced tumor weight”. Besides, the Cell migration entry with KYSE-150 cells [2] is on record as “significantly inhibited the cell migration”. Further, in the data set with KYSE-150, the “Cytotoxicity (cell viability)” value is on record as “cells viability was not altered; also recorded: no cytotoxicity was observed”. Moreover, the “Cytotoxicity (cell viability)” value with KYSE-520 is on record as “no cytotoxicity was observed”.
